Molecular target: T1, Prostatic acid phosphatase (Homo sapiens, UniProt P15309)
T1 sequence (P15309 whole entry): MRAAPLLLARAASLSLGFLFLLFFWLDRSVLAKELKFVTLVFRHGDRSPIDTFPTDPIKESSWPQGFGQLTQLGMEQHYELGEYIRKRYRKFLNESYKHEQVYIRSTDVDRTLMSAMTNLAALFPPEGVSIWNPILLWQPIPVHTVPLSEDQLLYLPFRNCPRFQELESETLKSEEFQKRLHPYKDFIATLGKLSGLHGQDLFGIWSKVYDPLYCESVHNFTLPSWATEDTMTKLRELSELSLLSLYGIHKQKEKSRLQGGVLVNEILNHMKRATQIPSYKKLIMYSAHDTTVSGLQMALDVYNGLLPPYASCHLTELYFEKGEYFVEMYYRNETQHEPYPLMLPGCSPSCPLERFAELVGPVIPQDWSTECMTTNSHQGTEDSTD
Test: ChEBML_158626
Protocol: Inhibition of human prostatic acid phosphatase was determined as inhibition of the hydrolysis of tyrosine phosphate

IC50 [µM] | Structure (SMILES)
> 100 | OP(O)(O)=c1c2ccccc2ccc2ccccc12 [(5H-Dibenzo[a,d]cyclohepten-5-yl)-phosphonic acid]
> 100 | OP(O)(O)=c1c2ccccc2sc2ccccc12 [(9H-Thioxanthen-9-yl)-phosphonic acid]
